Several values for one entry are separate records, joined by “and”; a condition that tells them apart may be missing. Equal entries are not always repeated.
Tests used:
[1] = test system: IL-7R internalization in Ba/F3-IL7R cells; assay: Colocalization of IL-7R with clathrin and Rab5 after IL-7 stimulation (immunofluorescence); type: cell-based, murine; details: Ba/F3-IL7R cells after IL-7 stimulation, vs vehicle; result in words
Description: For dynamic analysis of IL-7R internalization, 1 × 10^5 Ba/F3-IL-7R cells were incubated with Phycoerythrin (PE)-conjugated α-CD127 (A7R34, BioLegend) for 30 min on ice, washed twice in cold PBS 1×, resuspended in serum-free Dulbecco’s modified Eagle’s medium (DMEM) and stimulated with 50 ng/mL IL-7 at 37 °C for the indicated intervals. Cells were fixed, permeabilized and incubated with either α-clathrin (ab21679, Abcam Australia) or α-Rab5 (ab18211, Abcam Australia), as previously described. Washed cells were incubated in permeabilization buffer with donkey Alexa Fluor 488-conjugated anti-rabbit secondary antibody (A-21206, Molecular Probes, Life Technologies) for 1 h on ice. Cells were washed, incubated with 1 ng/mL 4′,6-diamidino-2-phenylindole for 15 min, washed twice and mounted using Mowiol mounting medium (81381, Sigma-Aldrich Pty Ltd, Castle Hill, NSW). For each independent experiment, at least 50 different fields of view were collected for blinded quantification, for each time point. All images were acquired using a Nikon A1r Plus SI inverted confocal microscope (Nikon Australia, Rhodes, NSW) using a Plan Apo ×60 oil objective.

[2] = test system: pStat5 and Hes1 in DN3a cells; assay: pStat5 and Hes1 in DN3a cells from treated Lmo2^Tg mice (flow cytometry); type: in vivo, mouse
Description: The synthesis of Dynole 34-2 and Dyngo 4a compounds was performed as previously described[32],[33] and was kindly provided by A. McCluskey. For in vitro assays, the specific Dynamin inhibitors Dynole 34-2, Dyngo 4a and Dynasore (#S8047, Selleckchem, Sapphire Bioscience Pty Ltd, Redfern NSW, Australia) were made as stock solutions in 100% dimethyl sulfoxide (DMSO), which were stored frozen. These compounds were diluted in 50% v/v DMSO/20 mM Tris-HCl pH 7.4 immediately prior to use. For in vivo administration, Dynole 34-2 was resuspended in pre-warmed HRC#5 (Pharmatek, San Diego CA, USA) 1 : 9 phosphate-buffered saline (PBS) 1× pH 7.4 at 37 °C, and sonicated 10 times for 30 s using a Bioruptor Plus (Biogenode) immediately prior to injection at 30 mg/kg, twice daily.
Phosphoflow analysis was performed as previously described. Briefly, 2 × 10^6 cells stained for surface markers were subsequently resuspended into PBS 1× + 4% v/v paraformaldehyde and incubated for 10 min at 4 °C for fixation. Fixed cells were washed twice using PBS 1×, then resuspended in pre-chilled at −20 °C Perm Buffer III (BD Pharmingen) and incubated 30 min at 4 °C for permeabilization. Cells were washed twice using PBS 1× and incubated overnight at 4 °C in PBS 1× + 2% v/v fetal calf serum (FCS) with Cell Signalling purified antibodies (Genesearch Pty Ltd, Arundel QLD, Australia) against pSTAT5 (Tyr694; #9359), phospho-p38 MAPK (Thr180/Tyr182; #4511), phospho-p44/42 (Erk1/2; #9102), phospho-S6 (Ser235/236; #4856) and phospho-Akt (Ser473; #9271) or isotype control. For intracellular HES1 detection, cells stained for surface markers were subsequently fixed and permeabilized using the BD Cytofix/Cytoperm^TM Kit and incubated overnight at 4 °C in PBS 1× + 2% v/v FCS with a purified antibody against HES1 (D6PU; #11988, Cell Signalling) or isotype control. After staining with primary antibodies for phosphoflow or intracellular detection, cells were incubated in permeabilization buffer with donkey Alexa Fluor 488-conjugated anti-rabbit secondary antibody (A-21206, lot #1910751, Molecular Probes, Invitrogen) or goat Alexa Fluor 546-conjugated anti-rabbit secondary antibody (A-11035, lot #1904467, Molecular Probes, Invitrogen) for 1 h on ice, and washed twice in PBS 1×. Fluorescence-activated cell sorting (FACS) analysis was performed using LSRII and LSR Fortessa cytometers, following the gating strategies described in Supplementary Fig. 11. Cell sorting was performed with a FACSAria or BD Influx.

[3] = test system: Lmo2^Tg primary T-ALL; assay: Survival (Kaplan-Meier) and leukemia growth delay in recipients of Lmo2^Tg primary T-ALL; type: in vivo, mouse; details: * = non-leukemic at endpoint
Description: Single-cell suspension of murine thymus cells were intravenously injected into sublethally irradiated (650 Rads) isogenic Ly5.1 (Cd45.1) mice. Fold expansion was calculated by dividing the absolute output number of donor-derived DN3a cells harvested at the experimental endpoint by the respective number of DN3a thymocytes injected in each recipient. Limiting dilution transplantations were performed as described, by injecting various doses (10^1 to 10^6) of thymocytes per recipient, and mice were scored positive when T-cell lineage reconstitution assessed 6 weeks after transplantation was >1%. Leukemia-propagating cell frequency was calculated by applying Poisson statistics using the ELDA: Extreme Limiting Dilution Analysis software (Walter and Eliza Hall Institute Bioinformatics, Parkville VIC, Australia)[96]. Limiting dilution transplantations were performed independently from any other transplantation assays, using thymocytes from three different Lmo2^Tg mice for each cohort. Kaplan–Meier survival and statistical analysis were performed using GraphPad Prism. 6.0 software (GraphPad Software Inc, San Diego CA, USA). […]
derived leukemic cells (%Cd45.2+) in the peripheral blood (PB) of recipients injected with Lmo2 Tg primary leukemias (T-ALL 582, n=5/cohort; T-ALL 273, n=7/cohort; T-ALL 249, n=5/cohort) treated with Dynole 34-2, VXL or combination therapy. […]

[4] = test system: normal murine hematopoietic stem and progenitor cells (HSPCs)
Description: Bone marrow cells collected from 2-month-old WT mice or CD34-positive (CD34+) stem and progenitor bone marrow cells from healthy donors were seeded at a density of 5 × 10^4 cells per 35 mm dish in semi-solid agar for GM colony growth, as previously described[92]. Cultures were incubated at 37 °C in 10% CO2 for 10 days in presence of 10 μg/mL rhIL-3 (#200-03, Pepro Tech), 25 μg/mL rhSCF (#300-07, Pepro Tech), 25 μg/mL rhFLT3-L (#300-19, Pepro Tech), rhIL-6 (#200-06, Pepro Tech), 500 nM StemRegenin 1 (SR1; #1227633-49-9, Stem Cell Technologies) and 35 nM UM-171 (#72914, Stem Cell Technologies)[93],[94], then stained with acetyl-cholinesterase and counted for the number of colonies.

| Compound | colocalization of IL-7R and clathrin [1] | colocalization of IL-7R with Rab5 [1] | Hes1 (MFI) ([2]; DN3a cells from treated Lmo2^Tg mice) | Hes1 (MFI) ([2]; GFPhi DN3a cells) | pStat5 (MFI) ([2]; GFPhi DN3a cells) | Hes1 (MFI) ([2]; GFPlo DN3a cells) | pStat5 (MFI) ([2]; GFPlo DN3a cells) | Time to leukemia ([3]; recipients of primary T-ALL 249) | Time to leukemia ([3]; recipients of primary T-ALL 582) | growth of normal hematopoietic stem and progenitor cells (HSPCs), clonogenic assay [4] |
| --- | --- | --- | --- | --- | --- | --- | --- | --- | --- | --- |
| CCCCCCCCNC(=O)C(C#N)=Cc1cn(CCCN(C)C)c2ccccc12 [Dynole 34-2, 2-Cyano-N-octyl-3-(1-(3-dimethylaminopropyl)-1H-indol-3-yl)-acrylamide] | no significant difference | markedly reduced | 22166 MFI and 17427 MFI and 19107 MFI and 15447 MFI | 2603 MFI and 2496 MFI and 2588 MFI and 2307 MFI and 2171 MFI | 1253 MFI and 1075 MFI and 1590 MFI and 1503 MFI and 1019 MFI | 2885 MFI and 2559 MFI and 2562 MFI and 2408 MFI and 2317 MFI | 1761 MFI and 1433 MFI and 1767 MFI and 1648 MFI and 1460 MFI | 3.7 weeks and 3 weeks and 3.4 weeks | 4.1 weeks and 5.6 weeks and 5.7 weeks and 6 weeks and 6.3 weeks |  |
| N#CC[C@H](C1CCCC1)n1cc(-c2ncnc3[nH]ccc23)cn1 [Ruxolitinib] |  |  |  |  |  |  |  |  |  | significantly impaired |
